Experimental data as given in publication PMC6976569, “Structural basis of subtype-selective competitive antagonism for GluN2C/2D-containing NMDA receptors” (Nature Communications, 2020).
“And” between values parts separate entries of the source, which are not always exact repeats. Equal values may be shown once.

Experiments:
Format in all cases: cell-based
[1] = biological target: T1, GluN1-4a/GluN2D Met763Lys NMDARs (Rattus norvegicus, UniProt P35439+Q62645, M763K); experiment: TEVC electrophysiology on oocytes expressing GluN1-4a/GluN2D Met763Lys
T1 construct: expressed in transfected cells; host or cells: Xenopus laevis oocytes injected with cRNA
T1 sequence (Q62645 28-1323 M763K, other chains not shown): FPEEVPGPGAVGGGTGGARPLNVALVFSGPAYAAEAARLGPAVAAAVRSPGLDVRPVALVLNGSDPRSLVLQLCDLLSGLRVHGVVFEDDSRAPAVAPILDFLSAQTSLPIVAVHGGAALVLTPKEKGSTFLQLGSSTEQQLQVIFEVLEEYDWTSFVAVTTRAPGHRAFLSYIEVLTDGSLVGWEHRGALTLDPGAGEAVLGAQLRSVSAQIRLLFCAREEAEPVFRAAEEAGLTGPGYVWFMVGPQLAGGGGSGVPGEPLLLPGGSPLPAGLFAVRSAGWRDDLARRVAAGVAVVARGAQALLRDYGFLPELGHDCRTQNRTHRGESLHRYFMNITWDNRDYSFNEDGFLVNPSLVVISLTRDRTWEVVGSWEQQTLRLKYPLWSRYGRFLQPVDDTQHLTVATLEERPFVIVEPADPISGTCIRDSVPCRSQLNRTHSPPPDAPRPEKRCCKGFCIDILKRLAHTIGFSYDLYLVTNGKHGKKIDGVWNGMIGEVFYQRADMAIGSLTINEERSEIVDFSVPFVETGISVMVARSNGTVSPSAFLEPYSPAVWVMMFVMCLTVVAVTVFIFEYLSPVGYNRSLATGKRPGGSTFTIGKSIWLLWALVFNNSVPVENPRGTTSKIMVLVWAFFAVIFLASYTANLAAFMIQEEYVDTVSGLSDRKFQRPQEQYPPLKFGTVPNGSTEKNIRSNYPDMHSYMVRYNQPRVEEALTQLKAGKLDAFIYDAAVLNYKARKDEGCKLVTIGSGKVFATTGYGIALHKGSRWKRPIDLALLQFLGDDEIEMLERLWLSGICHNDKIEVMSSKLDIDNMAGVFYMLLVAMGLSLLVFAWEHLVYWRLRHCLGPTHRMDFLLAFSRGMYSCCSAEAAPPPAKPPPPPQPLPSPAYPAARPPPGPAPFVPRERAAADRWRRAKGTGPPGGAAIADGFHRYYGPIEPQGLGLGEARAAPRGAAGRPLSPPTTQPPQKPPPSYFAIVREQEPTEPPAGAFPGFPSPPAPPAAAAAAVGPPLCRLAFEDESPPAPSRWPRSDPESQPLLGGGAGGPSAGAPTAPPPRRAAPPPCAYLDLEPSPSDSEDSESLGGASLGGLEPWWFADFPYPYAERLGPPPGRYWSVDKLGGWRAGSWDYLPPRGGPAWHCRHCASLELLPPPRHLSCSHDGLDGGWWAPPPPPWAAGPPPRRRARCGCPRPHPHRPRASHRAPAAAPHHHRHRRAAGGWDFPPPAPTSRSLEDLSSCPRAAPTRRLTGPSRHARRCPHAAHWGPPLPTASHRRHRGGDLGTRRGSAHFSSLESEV
Source text: (§1) To test the validity of the structural observation for the critical involvement of the methionine/lysine residue combination (GluN2D-Met763/Lys766, and GluN2A-4m-Met738/Lys741) in preferential binding of UBP791 to GluN2D over GluN2A, we conducted site-directed mutagenesis and assessed inhibition potencies of the mutant channels by TEVC. Specifically, we converted the GluN2D residues to the equivalent ones in the GluN2A subunit and measured macroscopic currents of the GluN1-4a/GluN2D mutant NMDARs.
(§2) Plasmids (pSP or pCI_NEO) harboring rat GluN1 or GluN2 full-length subunits were linearized by restriction digestion and transcribed according to the manufacturer’s instructions (mMESSAGE mMachine SP6 or T7 kit, ThermoFisher Scientific). Recombinant rat GluN1-4a and GluN2 were expressed by co-injecting cRNA at a 1:2 (w/w) ratio into defolliculated X. laevis oocytes (amounts varied from 0.05–25 ng per oocyte). Two-electrode voltage-clamp recordings were performed 1–3 days after injection using agarose-tipped microelectrodes (0.4–1.2 MΩ) filled with 3 M KCl at a holding potential of −60 mV. The bath solution contained 5 mM HEPES, 100 mM NaCl, 0.3 mM BaCl2, 10 mM Tricine, at pH 7.4 (adjusted with KOH). […] For the statistical evaluation, we implemented pairwise F-tests to test variances, and then performed the Student t test with equal or unequal variances as determined previously, and accounted for multiple testing with the Bonferroni correction.

[2] = biological target: T2, GluN1-4a/GluN2D Lys766Arg NMDARs (Rattus norvegicus, UniProt P35439+Q62645, K766R); experiment: TEVC electrophysiology on oocytes expressing GluN1-4a/GluN2D Lys766Arg
T2 construct: expressed in transfected cells; host or cells: Xenopus laevis oocytes injected with cRNA
T2 sequence (Q62645 28-1323 K766R, other chains not shown): as the sequence (Q62645 28-1323 M763K, other chains not shown) above, with K736M, K739R counted along it
Source text: as §1, §2

human GluK1 = human GluK1 (Homo sapiens, UniProt P39086); experiment: Glutamate-stimulated Ca2+-influx fluorescence assay in HEK293 cells, GluK1
Sequence of human GluK1 (P39086 31-918): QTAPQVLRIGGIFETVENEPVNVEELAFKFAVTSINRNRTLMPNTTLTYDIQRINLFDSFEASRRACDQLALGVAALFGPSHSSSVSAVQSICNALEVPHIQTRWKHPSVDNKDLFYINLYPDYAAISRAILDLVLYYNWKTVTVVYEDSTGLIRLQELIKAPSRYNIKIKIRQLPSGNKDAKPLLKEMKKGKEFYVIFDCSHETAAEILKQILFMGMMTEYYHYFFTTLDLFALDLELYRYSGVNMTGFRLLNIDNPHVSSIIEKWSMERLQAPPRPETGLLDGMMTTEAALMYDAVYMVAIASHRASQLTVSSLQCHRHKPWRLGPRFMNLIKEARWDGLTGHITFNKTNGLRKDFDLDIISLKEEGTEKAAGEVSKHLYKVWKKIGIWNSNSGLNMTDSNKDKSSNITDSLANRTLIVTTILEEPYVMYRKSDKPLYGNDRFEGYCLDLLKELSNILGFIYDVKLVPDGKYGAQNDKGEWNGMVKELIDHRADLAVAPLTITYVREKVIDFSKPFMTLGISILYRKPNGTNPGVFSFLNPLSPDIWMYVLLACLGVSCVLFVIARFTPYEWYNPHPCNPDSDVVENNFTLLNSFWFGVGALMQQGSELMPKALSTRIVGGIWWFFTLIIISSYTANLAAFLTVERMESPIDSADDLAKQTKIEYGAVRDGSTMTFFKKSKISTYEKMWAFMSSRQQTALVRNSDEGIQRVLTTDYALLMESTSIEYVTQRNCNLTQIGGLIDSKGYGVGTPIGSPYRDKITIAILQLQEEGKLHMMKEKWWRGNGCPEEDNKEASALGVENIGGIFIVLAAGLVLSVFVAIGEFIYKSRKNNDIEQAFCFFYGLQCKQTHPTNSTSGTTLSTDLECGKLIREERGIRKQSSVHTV
Experimental: Supplementary Figure 5. Effect of antagonist compounds on GluK1.
Averaged dose-response curves (average ± standard error of the mean) for inhibition with a […]
glutamate-stimulated Ca2+-influx assay from 3 or 4 measurements (n). IC50, Ki, and Hill coefficient nH (mean ± standard error of the mean) calculated with the Cheng-Prusoff equation were determined per measurement and are as shown. […]
HEK293 cell lines stably expressing homomeric glutamate receptors (GluA1, GluK1 and GluK2) were obtained from Eli Lilly and grown in DMEM (ThermoFisher) supplemented with 10% v/v fetal bovine serum (Sigma), 2 mM Glutamax™ (Gibco), 100 U/mL penicillin, 100 µg streptomycin and 250 ng amphotericin B (Sigma) in 5% CO2 at 37 °C. […]
(§3) Calcium influx fluorescence assay
100k cells/well were seeded into a 96-well plate precoated with poly-L-lysine and incubated for 12-16 hours until fully confluent. […] The time resolved fluorescence was recorded in a Flexstation 3 instrument (Molecular Devices). For each individual reading, the initial fluorescence of the well was measured for 20 seconds, after which the desired concentration of […]
response is measured as the peak change in fluorescence upon addition of agonist. […] Readings of antagonists used the […]
(§4) Fluorescence traces were performed in […]
triplicate on each plate and Ki values were determined on a plate-by-plate basis. […]

GluN1-4a/GluN2C NMDARs = biological target: T3, GluN1-4a/GluN2C NMDARs (Rattus norvegicus, UniProt P35439+Q00961); experiment: TEVC electrophysiology on Xenopus laevis oocytes expressing GluN1-4a/GluN2C; conditions: Ki, 100 μM glycine, 1 or 3 μM L-glutamate
T3 construct: expressed in transfected cells; host or cells: Xenopus laevis oocytes injected with cRNA
T3 sequence (Q00961 20-1237, other chains not shown): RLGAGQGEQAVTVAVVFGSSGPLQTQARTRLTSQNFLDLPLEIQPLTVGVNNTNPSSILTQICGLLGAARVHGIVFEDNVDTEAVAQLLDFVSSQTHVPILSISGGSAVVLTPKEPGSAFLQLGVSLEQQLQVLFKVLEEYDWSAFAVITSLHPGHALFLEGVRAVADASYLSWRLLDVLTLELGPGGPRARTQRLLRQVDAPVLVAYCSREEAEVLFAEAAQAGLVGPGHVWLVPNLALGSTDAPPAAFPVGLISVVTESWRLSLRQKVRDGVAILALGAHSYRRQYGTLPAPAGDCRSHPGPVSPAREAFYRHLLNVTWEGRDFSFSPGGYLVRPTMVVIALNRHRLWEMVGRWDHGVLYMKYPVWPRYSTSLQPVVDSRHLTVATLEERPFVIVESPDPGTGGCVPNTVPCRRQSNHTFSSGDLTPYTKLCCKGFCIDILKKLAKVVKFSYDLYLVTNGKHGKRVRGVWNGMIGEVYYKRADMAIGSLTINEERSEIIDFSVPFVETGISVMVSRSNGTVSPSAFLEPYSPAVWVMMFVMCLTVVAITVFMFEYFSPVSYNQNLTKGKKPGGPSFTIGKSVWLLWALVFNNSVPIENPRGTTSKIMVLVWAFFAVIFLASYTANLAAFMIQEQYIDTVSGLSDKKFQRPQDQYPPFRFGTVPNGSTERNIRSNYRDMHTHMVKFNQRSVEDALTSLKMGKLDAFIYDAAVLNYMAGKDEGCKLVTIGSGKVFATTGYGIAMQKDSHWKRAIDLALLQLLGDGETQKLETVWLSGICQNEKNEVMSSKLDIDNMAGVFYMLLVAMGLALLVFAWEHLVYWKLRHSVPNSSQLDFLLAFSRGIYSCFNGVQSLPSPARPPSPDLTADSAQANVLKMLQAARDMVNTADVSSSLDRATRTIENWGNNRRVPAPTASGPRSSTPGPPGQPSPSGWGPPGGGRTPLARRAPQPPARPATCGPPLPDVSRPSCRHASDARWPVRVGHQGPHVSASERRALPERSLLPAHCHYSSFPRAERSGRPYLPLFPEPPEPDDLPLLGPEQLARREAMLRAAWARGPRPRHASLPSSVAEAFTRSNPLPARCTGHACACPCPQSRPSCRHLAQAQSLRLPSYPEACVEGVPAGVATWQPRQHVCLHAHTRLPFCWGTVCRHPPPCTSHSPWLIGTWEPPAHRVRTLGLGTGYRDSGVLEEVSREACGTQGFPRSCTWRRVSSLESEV
Source text: The chemical definition of UBP791 used in this study is a cis-racemic mixture of (2S,3R)- and (2R,3S)-isomers.
as §2

[3] = biological target: T4, GluN1-4a/GluN2D Met763Lys/Lys766Arg NMDARs (Rattus norvegicus, UniProt Q62645, K766R/M763K); experiment: TEVC electrophysiology on oocytes expressing GluN1-4a/GluN2D Met763Lys/Lys766Arg; conditions: Ki mutant relative to Ki GluN2D (WT)
T4 construct: expressed in transfected cells; host or cells: Xenopus laevis oocytes injected with cRNA
T4 sequence (Q62645 28-1323 M763K/K766R, other chains not shown): as the sequence (Q62645 28-1323 M763K, other chains not shown) above, with K739R counted along it
Source text: as §1, §2

GluK2 = GluK2 (Homo sapiens, UniProt Q13002); experiment: Glutamate-stimulated Ca2+-influx fluorescence assay in HEK293 cells, GluK2; conditions: for IC50: HEK293 cells, glutamate-stimulated Ca2+-influx
Sequence of GluK2 (Q13002 32-908): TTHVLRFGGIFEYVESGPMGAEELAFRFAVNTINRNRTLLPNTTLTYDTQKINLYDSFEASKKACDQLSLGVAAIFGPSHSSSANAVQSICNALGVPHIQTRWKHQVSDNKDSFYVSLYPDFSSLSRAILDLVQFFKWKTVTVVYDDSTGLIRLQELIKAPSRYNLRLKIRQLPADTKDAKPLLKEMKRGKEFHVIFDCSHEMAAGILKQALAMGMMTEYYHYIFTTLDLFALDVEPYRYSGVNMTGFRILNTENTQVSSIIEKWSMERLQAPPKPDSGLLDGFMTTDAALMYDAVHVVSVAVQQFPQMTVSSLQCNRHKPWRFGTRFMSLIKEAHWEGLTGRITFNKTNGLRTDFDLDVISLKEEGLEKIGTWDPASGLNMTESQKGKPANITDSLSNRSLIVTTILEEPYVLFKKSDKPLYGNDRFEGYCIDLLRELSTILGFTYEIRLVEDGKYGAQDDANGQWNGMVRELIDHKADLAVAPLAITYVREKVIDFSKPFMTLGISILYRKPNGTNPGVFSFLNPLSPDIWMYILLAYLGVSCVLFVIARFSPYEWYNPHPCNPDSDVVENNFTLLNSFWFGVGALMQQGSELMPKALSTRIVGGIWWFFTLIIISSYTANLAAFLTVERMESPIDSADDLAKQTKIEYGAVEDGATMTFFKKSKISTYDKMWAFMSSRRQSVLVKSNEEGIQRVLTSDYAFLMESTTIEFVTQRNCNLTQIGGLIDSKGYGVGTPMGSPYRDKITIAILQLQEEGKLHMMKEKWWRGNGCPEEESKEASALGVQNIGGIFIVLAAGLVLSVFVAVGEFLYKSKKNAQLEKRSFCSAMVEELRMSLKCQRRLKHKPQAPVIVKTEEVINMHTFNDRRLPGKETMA
Experimental: HEK293 cell lines stably expressing homomeric glutamate receptors (GluA1, GluK1 and GluK2) were obtained from Eli Lilly and grown in DMEM (ThermoFisher) supplemented with 10% v/v fetal bovine serum (Sigma), 2 mM Glutamax™ (Gibco), 100 U/mL penicillin, 100 µg streptomycin and 250 ng amphotericin B (Sigma) in 5% CO2 at 37 °C. Cells were passaged using TrypLE (Gibco) as required before confluency and periodically treated with selection antibiotics (GluK1, GluK2 hygromycin B, 200 µg/mL; GluA1 geneticin™, 200 µg/mL).
as §3
100k cells/well were seeded into a 96-well plate precoated with poly-L-lysine and incubated for 12-16 hours until fully confluent. The cell monolayer was washed twice with 100 µL Hanks Balanced Salt Solution supplemented with 5 mM CaCl2 and 20 mM HEPES (sHBSS), then incubated for 2-4 hours with 100 µL working solution of Ca6 dye (Molecular Devices) supplemented with a desensitization blocker (GluK1, GluK2 0.25 mg/mL concanavalin A, Sigma; GluA1 100 µM cyclothiazide, Sigma). The time resolved fluorescence was recorded in a Flexstation 3 instrument (Molecular Devices). For each individual reading, the initial fluorescence of the well was measured for 20 seconds, after which the desired concentration of […]
response is measured as the peak change in fluorescence upon addition of agonist. The viability of the cells was confirmed by determination of the concentration-response curve to the L-glutamate agonist and a standard antagonist for each plate. Readings of antagonists used the […]
as §4
triplicate on each plate and Ki values were determined on a plate-by-plate basis. Separate experiments (n) were performed on different passages of cells. […]

[4] = normalized response at 30 µM compound
[5] = normalized response at 100 µM compound

SMILES	IC50 [1] [nM]	Ki [1] [nM]	IC50 [2] [nM]	Ki [2] [nM]	Ki (human GluK1) [nM]	Ki (GluN1-4a/GluN2C NMDARs; Cheng–Prusoff from IC50 and L-glutamate EC50) [nM]	Ki (GluN1-4a/GluN2C NMDARs; Cheng–Prusoff)	fold difference of Ki vs. 2D (WT) (2D-M763K/K766R) [3] [fold]	IC50 (GluK2) [nM]	Mean Response (GluK2; [4]) [%]	Mean Response (GluK2; [5]) [%]
O=C(O)CCc1ccc2c(ccc3cc(C(=O)N4CCN[C@@H](C(=O)O)[C@H]4C(=O)O)ccc32)c1 (relative stereo) [UBP791, (2S*,3R*)-1-(7-(2-carboxyethyl)phenanthrene-2-carbonyl)piperazine-2,3-dicarboxylic acid]	1900 ± 60	410 ± 70	1450 ± 80	170 ± 30	~100000	80 ± 10	80 to 90 nM	13	> 100000	96.1	97.8
O=C(O)C=Cc1ccc2c(ccc3cc(C(=O)N4CCN[C@@H](C(=O)O)[C@H]4C(=O)O)ccc32)c1 (relative stereo) [UBP1700, (2S*,3R*)-1-(7-(2-carboxyvinyl)phenanthrene-2-carbonyl)piperazine-2,3-dicarboxylic acid]					~32000		7 to 9 nM and 9 nM		> 100000	76.5	90.4
